Where two headings read alike, the source gives them in different places.
Columns and labels:
[1] = tested on: Human lung cancer cell line NCI-H1781; experiment: Cell proliferation inhibition test upon SLFN11 knockdown, NCI-H1781; type: cell-based; details: for Cell proliferation inhibitory effect upon SLFN11 knockdown: NCI-H1781 cell lines, SLFN11 siRNA vs Non-targeting Control; for Fold change (SLFN11/Non-targeting Control): ratio of IC50
Description: (§1) Human lung cancer cell line NCI-H1781 was obtained from ATCC and used for evaluation. NCI-H1781 cells suspended at 2×10^3 cells/mL in RPMI-1640 medium containing 10% bovine fetal serum were seeded in a 10 cm cell culture dish at 10 mL/dish. Twenty-four hours after seeding, 100 pmol of ON-TARGETplus SLFN11 siRNA (Dharmacon Inc.) or ON-TARGETplus Non-targeting Control Pool (Dharmacon Inc.) and 30 μL of Lipofectamine™ RNAiMAX Transfection Reagent (Thermo Fisher Scientific Inc.) were suspended in 1 mL of Opti-MEM medium, and the entire amount of the suspension was added to the medium. After 72 hours, the medium was removed and the dish was washed with PBS, then the cells were dissociated and recovered from the dish using 1 mL of TrypLE™ Express. The recovered cells were suspended at 5×10^4 cells/mL in RPMI-1640 medium containing 10% bovine fetal serum, and seeded in a 96-well cell culture plate at 100 μL/well. Twenty-four hours after seeding, the medium was replaced with a medium containing 100 nM, 33 nM, 11 nM, 3.7 nM, 1.2 nM, 0.41 nM, 0.13 nM, 0.045 nM, or 0 nM of compound (1) or antibody-drug conjugate (1) at 100 μL/well. The molar concentration of antibody-drug conjugate (1) was calculated by setting the average molecular weight to 150,000. Cells were all cultured at 37° C. under 5% CO2. After 72 hours from the medium replacement, ATPlite 1 step detection system (PerkinElmer Inc.) was added at 100 μL/well. The wells were incubated at room temperature for 10 minutes, then the luminescence intensity of each well was measured.
(§2) The cell growth inhibition rate (%) at each condition was calculated using the following calculation formula: Cell growth inhibition rate (%)=100×(1−T/C) • T: Average luminescence intensity of each well to which specimen was added • C: Average luminescence intensity of each well to which 0 nM specimen was added
(§3) The 50% inhibitory concentration at each condition was calculated by fitting to the following calculation formula: Cell viability (%)=(Emax−Emin)×Specimen concentration^γ/((Emax−50)/(50−Emin)×IC50^γ+Specimen concentration^γ)+Emin • Emax: maximum cell growth inhibition rate (%) • Emin: minimum cell growth inhibition rate (%) • IC50: 50% inhibitory concentration • γ: Hill coefficient
(§4) The fitting to the calculation formula was performed using SAS Systems Release 9.2 (SAS Institute Inc.).

[2] = tested on: Human breast cancer cell line MDA-MB-468; experiment: Cell proliferation inhibition test upon SLFN11 knockdown, MDA-MB-468; type: cell-based
Description: as §1, with “breast” for “lung”, “MDA-MB-468” for “NCI-H1781”, “[…]” for “pmol”
as §2, §3, §4

Row | Molecule | IC50 ([1]; Homo sapiens, NCI-H1781, 72 h, read-out: IC50 (nM) Non-targeting Control Pool) | IC50 ([1]; Homo sapiens, NCI-H1781, 72 h, read-out: IC50 (nM) SLFN11 siRNA) | Cell proliferation inhibitory effect upon SLFN11 knockdown [1] | Fold change (SLFN11/Non-targeting Control) ([1]; NCI-H1781 cells) | IC50 ([2]; Homo sapiens, MDA-MB-468, 72 h, read-out: IC50 (nM) Non-targeting Control Pool) | IC50 ([2]; Homo sapiens, MDA-MB-468, 72 h, read-out: IC50 (nM) SLFN11 siRNA) | Cell proliferation inhibitory effect upon SLFN11 knockdown ([2]; MDA-MB-468 cell lines, SLFN11 siRNA vs Non-targeting Control) | Fold change (SLFN11/Non-targeting Control) ([2]; MDA-MB-468 cells, ratio of IC50) | IC50 ([1]; NCI-H1781 cells, Non-targeting Control Pool, 72 hours, ATPlite, read-out: IC50 (nM) Non-targeting Control Pool) | IC50 ([1]; NCI-H1781 cells, SLFN11 siRNA knockdown, 72 hours, ATPlite, read-out: IC50 (nM) SLFN11 siRNA) | IC50 ([2]; MDA-MB-468 cells, Non-targeting Control Pool, 72 hours, ATPlite, read-out: IC50 (nM) Non-targeting Control Pool) | IC50 ([2]; MDA-MB-468 cells, SLFN11 siRNA knockdown, 72 hours, ATPlite, read-out: IC50 (nM) SLFN11 siRNA)
1 | CC[C@@]1(O)C(=O)OCc2c1cc1n(c2=O)Cc2c-1nc1cc(F)c(C)c3c1c2[C@@H](NC(=O)CO)CC3 [Compound (1)] | 3.3 nM | 15 nM | attenuated by SLFN11 knockdown | 4.5 | 4.8 nM | 27.5 nM | attenuated by SLFN11 knockdown | 5.7 |  |  |  | 
2 | antibody-drug conjugate (1): humanized anti-hTROP2 antibody (SEQ ID NO: 1 residues 20-470, SEQ ID NO: 2 residues 21-234) conjugated to the exatecan-derivative drug-linker via a thioether bond (conjugate, chains of the INN, looked up, exatecan-derivative drug-linker) VH: QVQLVQSGAEVKKPGASVKVSCKASGYTFTTAGMQWVRQAPGQGLEWMGWINTHSGVPKYAEDFKGRVTISADTSTSTAYLQLSSLKSEDTAVYYCARSGFGSSYWYFDVWGQGTLVTVSS VL: DIQMTQSPSSLSASVGDRVTITCKASQDVSTAVAWYQQKPGKAPKLLIYSASYRYTGVPSRFSGSGSGTDFTLTISSLQPEDFAVYYCQQHYITPLTFGQGTKLEIK |  |  | attenuated by SLFN11 knockdown | >12.5 |  |  |  |  | 8 nM | > 100 nM | > 100 nM | > 100 nM
